Results as given in publication PMC3353862.
Values after ≈ are worked out from the molar mass of the structure shown.

Experiments:
M. catarrhalis = assay: Broth microdilution MIC testing; format: cell-based, Moraxella catarrhalis; details: for MIC: Moraxella catarrhalis
panel of bacteria = assay: Antibacterial activity against the panel of bacteria (MIC, overall); format: cell-based; details: for antibacterial activity: panel of bacteria; as to MIC (antibacterial activity grade): key: +: poor; ++: moderate; +++: good antibacterial activity
[1] = tested on: bacterial protein synthesis (aminoacylation/translation system); assay: aminoacylation/translation (A/T) assay; format: biochemical; details: for IC50: A/T assay, Table 1, read-out: IC50; for fold improvement in the IC50: relative to the original two compounds
S. pneumoniae = assay: Broth microdilution MIC testing; format: cell-based, Streptococcus pneumoniae; details: for MIC: Streptococcus pneumoniae, read-out: MIC S. pneumo; for MIC S. pneumo: S. pneumoniae
H. influenzae = assay: Broth microdilution MIC testing; format: cell-based, Haemophilus influenzae; details: for MIC: Haemophilus influenzae, read-out: MIC H. flu; for MIC H. flu: H. influenzae
E. faecalis = assay: Broth microdilution MIC testing; format: cell-based, Enterococcus faecalis; details: for MIC: Enterococcus faecalis, read-out: MIC E. fae; for MIC E. fae: E. faecalis
E. coli tolC mutants = assay: Broth microdilution MIC testing; format: cell-based, Escherichia coli; details: for MIC: Escherichia coli, read-out: MIC E. coli tolC; for MIC E. coli tolC: E. coli tolC mutants
S. aureus = assay: Broth microdilution MIC testing; format: cell-based, Staphylococcus aureus; details: for MIC: Staphylococcus aureus, read-out: MIC S. aureus
[2] = tested on: E. coli modified with PMBN; assay: Broth microdilution MIC testing; format: cell-based, Escherichia coli; details: for MIC: Escherichia coli, read-out: MIC E. coli +PMBP; for MIC E. coli +PMBP: E. coli modified with PMBN

SMILES | MIC (M. catarrhalis) [µg/mL] | MIC (antibacterial activity grade) (panel of bacteria; Table 2) | IC50 [1] [nM] | MIC (S. pneumoniae) [µg/mL] | MIC (H. influenzae) [µg/mL] | MIC (E. faecalis) [µg/mL] | MIC (E. coli tolC mutants) [µg/mL] | MIC (S. aureus) [µg/mL] | MIC [2] [µg/mL] | MIC M. cat (M. catarrhalis) [µg/mL] | MIC (antibacterial activity grade) (panel of bacteria; Table 3) | MIC S. pneumo (S. pneumoniae) [µg/mL] | MIC H. flu (H. influenzae) [µg/mL] | MIC E. fae (E. faecalis) [µg/mL] | MIC E. coli tolC (E. coli tolC mutants) [µg/mL] | MIC S. aureus (S. aureus) [µg/mL] | MIC E. coli +PMBP [2] [µg/mL] | antibacterial activity (panel of bacteria) | biochemical activity in the A/T assay [1] | fold improvement in the IC50 [1]
O=c1[nH]c(-c2ccccn2)nc2c1CN(CCc1ccc(Cl)cc1)CC2 [Compound 323370] | ≤ 0.12 | +++ | 280 | 4 (≈ 10.9 µM) | 2 (≈ 5.45 µM) | 16 (≈ 43.6 µM) | 8 (≈ 21.8 µM) | 16 (≈ 43.6 µM) | 8 (≈ 21.8 µM) | – | – | – | – | – | – | – | – | – | – | –
O=c1[nH]c(-c2ccccn2)nc2c1CN(Cc1ccc(Br)cc1)CC2 [Compound 323341] | – | – | 41400 | – | – | – | – | – | – | ≤0.12 | +++ | 4 (≈ 10.1 µM) | 2 (≈ 5.03 µM) | 32 (≈ 80.5 µM) | 8 (≈ 20.1 µM) | 16 (≈ 40.3 µM) | 16 (≈ 40.3 µM) | – | – | –
O=c1[nH]c(-c2ccccn2)nc2c1CN(Cc1cc(Cl)ccc1Cl)CC2 [Compound 323340] | – | – | > 300000 | – | – | – | – | – | – | ≤0.12 | +++ | 2 (≈ 5.16 µM) | 1 (≈ 2.58 µM) | 16 (≈ 41.3 µM) | 1 (≈ 2.58 µM) | 4 (≈ 10.3 µM) | 2 (≈ 5.16 µM) | good antibacterial activity | no inhibitory effect | –
O=c1[nH]c(-c2ccccn2)nc2c1CCN(Cc1ccc(Cl)cc1)CC2 [Compound 332058] | ≤ 0.12 | +++ | 560 | 2 (≈ 5.45 µM) | 0.5 (≈ 1.36 µM) | 16 (≈ 43.6 µM) | 4 (≈ 10.9 µM) | 16 (≈ 43.6 µM) | 4 (≈ 10.9 µM) | – | – | – | – | – | – | – | – | – | – | –
CC(C)Oc1ccc(CN2CCc3nc(-c4ccccn4)[nH]c(=O)c3C2)cc1 [Compound 323365] | – | – | 2270 | – | – | – | – | – | – | ≤0.12 | +++ | 4 (≈ 10.6 µM) | 4 (≈ 10.6 µM) | 16 (≈ 42.5 µM) | 4 (≈ 10.6 µM) | 8 (≈ 21.3 µM) | 4 (≈ 10.6 µM) | – | – | –
Oc1nc(-c2ccccn2)nc2c1CCN(Cc1ccc(Cl)cc1)C2 [Compound 323338] | ≤ 0.12 | – | 64400 | 4 (≈ 11.3 µM) | 2 (≈ 5.67 µM) | 16 (≈ 45.3 µM) | 4 (≈ 11.3 µM) | 16 (≈ 45.3 µM) | 8 (≈ 22.7 µM) | – | +++ | – | – | – | – | – | – | – | – | –
CN(C)Cc1ccc(CN2CCc3nc(-c4ccccn4)[nH]c(=O)c3C2)cc1 [Compound 323201] | – | – | 2100 | – | – | – | – | – | – | > 128 | – | > 128 | > 128 | > 128 | > 128 | > 128 | > 128 | all antibacterial activity was lost | – | –
O=c1[nH]c(-c2ccccn2)nc2c1CN(Cc1cccc(Br)c1Br)CC2 [Compound 323367] | – | – | 1890 | – | – | – | – | – | – | ≤0.12 | +++ | 2 (≈ 4.2 µM) | 1 (≈ 2.1 µM) | 4 (≈ 8.4 µM) | 2 (≈ 4.2 µM) | 8 (≈ 16.8 µM) | 8 (≈ 16.8 µM) | – | – | –
CN(C)c1ccc(CN2CCc3nc(-c4ccccn4)[nH]c(=O)c3C2)cc1 [Compound 323218] | – | + | 240 | – | – | – | – | – | – | 4 (≈ 11.1 µM) | – | 32 (≈ 88.5 µM) | 16 (≈ 44.3 µM) | > 128 | 128 (≈ 354 µM) | > 128 | 64 (≈ 177 µM) | – | – | five and tenfold
Oc1cccc(CN2CCc3nc(-c4ccccn4)nc(O)c3C2)c1 [Compound 321526] | 64 (≈ 191 µM) | – | 3500 | > 128 | > 128 | > 128 | > 128 | > 128 | > 128 | – | – | – | – | – | – | – | – | little or no anti-bacterial activity | – | –
O=c1[nH]c(-c2ccccn2)nc2c1CN(Cc1cc3c(cc1Cl)OCO3)CC2 [Compound 323227] | – | + | 370 | – | – | – | – | – | – | 8 (≈ 20.2 µM) | – | 64 (≈ 161 µM) | 32 (≈ 80.6 µM) | > 128 | 64 (≈ 161 µM) | > 128 | > 128 | – | – | three to sevenfold
COc1cc(CN2CCc3nc(-c4ccccn4)[nH]c(=O)c3C2)ccc1OCC(N)=O [Compound 323200] | – | – | 400 | – | – | – | – | – | – | > 128 | – | > 128 | > 128 | > 128 | > 128 | > 128 | > 128 | MIC was above maximum testing concentrations for the entire panel of bacteria | – | three to sevenfold
O=c1[nH]c(-c2ccccn2)nc2c1CN(Cc1cc(Cl)cc(Cl)c1)CC2 [Compound 323339] | – | – | 19000 | – | – | – | – | – | – | ≤0.12 | +++ | 4 (≈ 10.3 µM) | 8 (≈ 20.7 µM) | 64 (≈ 165 µM) | 2 (≈ 5.16 µM) | 32 (≈ 82.6 µM) | 2 (≈ 5.16 µM) | – | – | –
O=c1[nH]c(-c2ccccn2)nc2c1CN(Cc1cccc(Cl)c1Cl)CC2 [Compound 323344] | – | – | 11600 | – | – | – | – | – | – | ≤0.12 | +++ | 2 (≈ 5.16 µM) | 4 (≈ 10.3 µM) | 32 (≈ 82.6 µM) | 1 (≈ 2.58 µM) | 8 (≈ 20.7 µM) | 4 (≈ 10.3 µM) | – | – | –
O=C(Nc1ccc(Cl)cc1)N1CCc2nc(-c3ccccn3)[nH]c(=O)c2C1 [Compound 323368] | > 128 | – | 470 | > 128 | > 128 | > 128 | > 128 | > 128 | > 128 | – | – | – | – | – | – | – | – | complete loss of antibacterial activity | – | –
O=c1[nH]c(-c2ccccn2)nc2c1CN(Cc1ccc(Cl)cc1Cl)CC2 [Compound 323343] | – | – | 8240 | – | – | – | – | – | – | ≤0.12 | +++ | 2 (≈ 5.16 µM) | 1 (≈ 2.58 µM) | 32 (≈ 82.6 µM) | 4 (≈ 10.3 µM) | 8 (≈ 20.7 µM) | 2 (≈ 5.16 µM) | – | – | –
Cc1nc(-c2nc3c(c(=O)[nH]2)CN(Cc2ccc(Cl)cc2)CC3)cs1 [Compound 323356] | 8 (≈ 21.5 µM) | – | > 300000 | 128 (≈ 343 µM) | 64 (≈ 172 µM) | 128 (≈ 343 µM) | 128 (≈ 343 µM) | > 128 | > 128 | – | – | – | – | – | – | – | – | slight antibacterial activity | abolished all biochemical activity | –
